“And” between values parts separate entries of the source, which are not always exact repeats. Equal values may be shown once. Records with an inconclusive call do not appear.

In this assay the test system is CD8F1 mice, subcutaneous mammary adenocarcinoma, T/C%. As to the kind of experiment: NCI In Vivo Anticancer Drug Screen. Data for tumor model Mammary Adenocarcinoma CD8F1 (subcutaneous) in CD8F1. As to conditions: higher = larger tumour. In short, it runs like this: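 Ratio of treated to vehicle-control outcome, based on either survival or tumor size, in mice bearing transplantable tumors given the test compound.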

`c1ccc([P+](c2ccccc2)(c2ccccc2)c2ccccc2)cc1`: the T/C is, setting by setting: (endpoint: median tumor weight (est.), dose: 0.31 mg/kg/injection, schedule: Q07DX004 (ip), vehicle: saline) 218 % of control and 86 % of control; (endpoint: median tumor weight (est.), dose: 0.31 mg/kg/injection, schedule: Q07DX005 (ip), vehicle: saline) 98 % of control; (endpoint: median tumor weight (est.), dose: 0.62 mg/kg/injection, schedule: Q04DX005 (ip), vehicle: saline) 50 % of control and 67 % of control; (endpoint: median tumor weight (est.), dose: 0.62 mg/kg/injection, schedule: Q07DX005 (ip), vehicle: saline) 121 % of control; (endpoint: median tumor weight (est.), dose: 1.25 mg/kg/injection, schedule: Q04DX005 (ip), vehicle: saline) 100 % of control; (endpoint: median tumor weight (est.), dose: 1.25 mg/kg/injection, schedule: Q07DX004 (ip), vehicle: saline) 124 % of control. The T/C was 62 % of control (endpoint: median tumor weight (est.), dose: 1.25 mg/kg/injection, schedule: Q07DX005 (ip), vehicle: saline); 73 % of control and 76 % of control (endpoint: median tumor weight (est.), dose: 2.5 mg/kg/injection, schedule: Q04DX005 (ip), vehicle: saline); 63 % of control (endpoint: median tumor weight (est.), dose: 2.5 mg/kg/injection, schedule: Q07DX005 (ip), vehicle: saline).
For `CC(=O)OC1C(O)C(C)OC(OC2C(OC(=O)C3CCC4C(C3)OC3(CC(OC(=O)/C=C/c5ccccc5)C(C)CO3)C43CO3)OC(C)C(O)C2OC(C)=O)C1O` (configuration not stated), the T/C (endpoint: median tumor weight change, dose: 10.0 mg/kg/injection, schedule: Q01DX001 (ip), vehicle: distilled water + Tween-80) was 107 % of control; the T/C (endpoint: median tumor weight change, dose: 40.0 mg/kg/injection, schedule: Q01DX001 (ip), vehicle: distilled water + Tween-80) is 100 % of control; the T/C (endpoint: median tumor weight change, dose: 80.0 mg/kg/injection, schedule: Q01DX001 (ip), vehicle: distilled water + Tween-80) was 110 % of control.
Take `NNC(=O)c1ccncc1`: the T/C reads like this: (endpoint: median tumor weight change, dose: 62.0 mg/kg/injection, schedule: Q01DX001 (ip), vehicle: saline) 78 % of control; (endpoint: median tumor weight change, dose: 125.0 mg/kg/injection, schedule: Q01DX001 (ip), vehicle: saline) 70 % of control.
With `C/C=C/C=C/c1cc2cc3c(c(O)c2c(=O)[nH]1)C1(CC3)C(O)=c2c(=O)c3c(=O)cc(OC)c(=O)c=3c(=O)c2=C1O` (configuration not stated), the T/C reads like this: (endpoint: median tumor weight change, dose: 2.5 mg/kg/injection, schedule: Q01DX001 (ip), vehicle: DMSO) 106 % of control; (endpoint: median tumor weight change, dose: 5.0 mg/kg/injection, schedule: Q01DX001 (ip), vehicle: DMSO) 79 % of control.
Consider `CCCCCC(O)C1C(=O)OC(C)C(O)/C=C/C=C/C=C/C=C\C=C(\C)C(O)CC(O)CC(O)CC(O)CC(O)CC(O)CC1O` (configuration not stated), for which the T/C (endpoint: median tumor weight change, dose: 62.5 mg/kg/injection, schedule: Q01DX001 (ip), vehicle: distilled water + Tween-80) is 150 % of control.
Consider `CCCCCCCCCCCCCCCCCCOCC(COP(=O)([O-])OCC[N+](C)(C)C)OC` (configuration not stated), for which the T/C is, setting by setting: (endpoint: median tumor weight change, dose: 1.95 mg/kg/injection, schedule: Q01DX001 (ip), vehicle: saline) 97 % of control; (endpoint: median tumor weight change, dose: 3.9 mg/kg/injection, schedule: Q01DX001 (ip), vehicle: saline) 67 % of control; (endpoint: median tumor weight change, dose: 7.8 mg/kg/injection, schedule: Q01DX001 (ip), vehicle: saline) 95 % of control; (endpoint: median tumor weight change, dose: 15.62 mg/kg/injection, schedule: Q01DX001 (ip), vehicle: saline) 48 % of control; (endpoint: median tumor weight change, dose: 31.0 mg/kg/injection, schedule: Q01DX001 (ip), vehicle: suspension in saline) 79 % of control; (endpoint: median tumor weight change, dose: 31.25 mg/kg/injection, schedule: Q01DX001 (ip), vehicle: saline) 100 % of control. In addition, the T/C (endpoint: median tumor weight change, dose: 62.0 mg/kg/injection, schedule: Q01DX001 (ip), vehicle: suspension in saline) was 75 % of control.
As to `CO[C@H]1C[C@](C)(O)Cc2cc3c(c(O)c21)C(=O)c1c(O)cc2c(c1C3=O)O[C@@H]1O[C@@]2(C)[C@H](O)[C@@H](N(C)C)[C@@H]1O`, the T/C was 62 % of control (endpoint: median tumor weight (est.), dose: 7.0 mg/kg/injection, schedule: Q07DX005 (ip), vehicle: saline with Tween-80); 60 % of control (endpoint: median tumor weight (est.), dose: 11.0 mg/kg/injection, schedule: Q07DX005 (ip), vehicle: saline with Tween-80); 75 % of control (endpoint: median tumor weight (est.), dose: 16.0 mg/kg/injection, schedule: Q07DX005 (ip), vehicle: saline with Tween-80); 64 % of control (endpoint: median tumor weight (est.), dose: 24.0 mg/kg/injection, schedule: Q07DX005 (ip), vehicle: saline with Tween-80); 10 % of control (endpoint: median tumor weight (est.), dose: 48.0 mg/kg/injection, schedule: Q07DX005 (ip), vehicle: saline with Tween-80).
Regarding `Cc1cc(N(CCOS(C)(=O)=O)CCOS(C)(=O)=O)ccc1C=Nc1ccc(-c2nc(Cc3ccccc3)sc2C)cc1`, the T/C was 18 % of control (endpoint: median tumor weight (est.), dose: 12.5 mg/kg/injection, schedule: Q07DX005 (ip), vehicle: Klucel (hydroxypropylcellulose) (HPC)); 4 % of control and 9 % of control (endpoint: median tumor weight (est.), dose: 100.0 mg/kg/injection, schedule: Q07DX005 (ip), vehicle: Klucel (hydroxypropylcellulose) (HPC)); 10 % of control (endpoint: median tumor weight (est.), dose: 200.0 mg/kg/injection, schedule: Q07DX005 (ip), vehicle: Klucel (hydroxypropylcellulose) (HPC)).
Turning to `C/C(=N\N=C(/[Se])N1CC2CCC(CC2)C1)c1ccccn1`, the T/C (endpoint: median tumor weight change, dose: 8.0 mg/kg/injection, schedule: Q01DX001 (ip), vehicle: Klucel (hydroxypropylcellulose) (HPC)) is 86 % of control; the T/C (endpoint: median tumor weight change, dose: 15.62 mg/kg/injection, schedule: Q01DX001 (ip), vehicle: Klucel (hydroxypropylcellulose) (HPC)) is 114 % of control; the T/C (endpoint: median tumor weight change, dose: 15.62 mg/kg/injection, schedule: Q01DX001 (ip), vehicle: saline with Tween-80) is 109 % of control; the T/C (endpoint: median tumor weight change, dose: 16.0 mg/kg/injection, schedule: Q01DX001 (ip), vehicle: Klucel (hydroxypropylcellulose) (HPC)) is 27 % of control; the T/C (endpoint: median tumor weight change, dose: 31.0 mg/kg/injection, schedule: Q01DX001 (ip), vehicle: Klucel (hydroxypropylcellulose) (HPC)) is 55 % of control; the T/C (endpoint: median tumor weight change, dose: 31.25 mg/kg/injection, schedule: Q01DX001 (ip), vehicle: saline with Tween-80) is 87 % of control. Moreover, the T/C is 18 % of control (endpoint: median tumor weight change, dose: 62.0 mg/kg/injection, schedule: Q01DX001 (ip), vehicle: Klucel (hydroxypropylcellulose) (HPC)); 122 % of control (endpoint: median tumor weight change, dose: 62.5 mg/kg/injection, schedule: Q01DX001 (ip), vehicle: Klucel (hydroxypropylcellulose) (HPC)); 65 % of control (endpoint: median tumor weight change, dose: 62.5 mg/kg/injection, schedule: Q01DX001 (ip), vehicle: saline with Tween-80); 111 % of control (endpoint: median tumor weight change, dose: 125.0 mg/kg/injection, schedule: Q01DX001 (ip), vehicle: Klucel (hydroxypropylcellulose) (HPC)); 59 % of control (endpoint: median tumor weight change, dose: 125.0 mg/kg/injection, schedule: Q01DX001 (ip), vehicle: saline with Tween-80).
In the case of `CCC/C=C/C=C/C(=O)OC1/C(=C/C(=O)OC)CC2CC(C(C)O)OC(=O)CC(O)CC3CC(OC(C)=O)C(C)(C)C(O)(CC4C/C(=C/C(=O)OC)CC(/C=C/C(C)(C)C1(O)O2)O4)O3` (configuration not stated), the T/C by setting is: (endpoint: median tumor weight change, dose: 0.02 mg/kg/injection, schedule: Q01DX001 (ip), vehicle: saline + alcohol) 63 % of control; (endpoint: median tumor weight change, dose: 0.04 mg/kg/injection, schedule: Q01DX001 (ip), vehicle: saline + alcohol) 115 % of control; (endpoint: median tumor weight change, dose: 0.09 mg/kg/injection, schedule: Q01DX001 (ip), vehicle: saline + alcohol) 95 % of control; (endpoint: median tumor weight change, dose: 0.19 mg/kg/injection, schedule: Q01DX001 (ip), vehicle: saline + alcohol) 22 % of control.

Source of the values: PubChem BioAssay AID220 (DTP/NCI, 2004).
